# Experimental data taken from patent US11739093B2, “Substituted pyrazolopyrazines, imidazopyrazines and [1,2,4]triazolopyrazines as allosteric SHP2 inhibitors” (Revolution Medicines, Inc., priority 2017, dated 2023).
# Target: SHP2 (Homo sapiens (Human), UniProt Q06124)
# Assay: SHP2 Allosteric Inhibition Assay
# Format: biochemical
# Conditions: 0.2 nM SHP2 with 0.5 μM Activating Peptide 1 or 2; surrogate substrate DiFMUP; prompt fluorescence, kinetic read
# Text: Without wishing to be bound by theory, SHP is allosterically activated through binding of bis-tyrosyl-phosphorylated peptides to its Src Homology 2 (SH2) domains. The latter activation step leads to the release of the auto-inhibitory interface of SHP2, which in turn renders the SHP2 protein tyrosine phosphatase (PTP) active and available for substrate recognition and reaction catalysis. The catalytic activity of SHP2 was monitored using the surrogate substrate DiFMUP in a prompt fluorescence assay format.
# The phosphatase reactions were performed at room temperature in 96-well black polystyrene plate, flat bottom, non-binding surface (Corning, Cat #3650) using a final reaction volume of 100 μL and the following assay buffer conditions: 50 mM HEPES, pH 7.2, 100 mM NaCl, 0.5 mM EDTA, 0.05% P-20, 1 mM DTT.
# The inhibition of SHP2 by compounds of the disclosure (concentrations varying from 0.00005-10 μM) was monitored using an assay in which 0.2 nM of SHP2 was incubated with 0.5 μM of Activating Peptide 1 (sequence: H2N-LN(pY)IDLDLV(dPEG8)LST(pY)ASINFQK-amide) or Activating Peptide 2 (sequence: H2N-LN(pY)AQLWHA(dPEG8)LTI(pY)ATIRRF-amide). After 30-60- minutes incubation at 25° C., the surrogate substrate DiFMUP (Invitrogen, Cat #D6567) was added to the reaction and activity was determined by a kinetic read using a microplate reader (Envision, Perkin-Elmer or Spectramax M5, Molecular Devices). The excitation and emission wavelengths were 340 nm and 450 nm, respectively. Initial rates were determined from a linear fit of the data, and the inhibitor dose response curves were analyzed using normalized IC50 regression curve fitting with control based normalization.
row,IC50,SMILES
1,1100 nM,"Cc1nc(N2CCC3(CC2)CO[C@@H](C)[C@H]3N)c2nccn2c1Sc1ccnc(N)c1Cl [Compound 6, (3S,4S)-8-{5-[(2-amino-3-chloropyridin-4-yl)sulfanyl]-6-methylimidazo[1,2-a]pyrazin-8-yl}-3-methyl-2-oxa-8-azaspiro[4.5]decan-4-amine]"
2,340 nM,"CC1(N)CCN(c2ncc(Sc3ccnc(N)c3Cl)c3nsnc23)CC1 [Compound 15, 4-((4-(4-amino-4-methylpiperidin-1-yl)-[1,2,5]thiadiazolo[3,4-c]pyridin-7-yl)thio)-3-chloropyridin-2-amine]"
3,83 nM,"C[C@@H]1OCC2(CCN(c3ncc(Sc4ccnc(N)c4Cl)c4ncncc34)CC2)[C@@H]1N [Compound 16, (3S,4S)-8-{8-[(2-amino-3-chloropyridin-4-yl)sulfanyl]pyrido[4,3-d]pyrimidin-5-yl}-3-methyl-2-oxa-8-azaspiro[4.5]decan-4-amine]"
4,190 nM,"Cc1nc(N2CCC(C)(N)CC2)c2cncn2c1-c1cccc(Cl)c1Cl [Compound 2, 1-(5-(2,3-dichlorophenyl)-6-methylimidazo[1,5-a]pyrazin-8-yl)-4-methylpiperidin-4-amine]"
